The values below come from ChEMBL document CHEMBL1149126, “3-phenyl-6-(2-pyridyl)methyloxy-1,2,4-triazolo[3,4-a]phthalazines and analogues: high-affinity gamma-aminobutyric acid-A benzodiazepine receptor ligands with alpha 2, alpha 3, and alpha 5-subtype binding selectivity over alpha 1” (J Med Chem, 2004).

For assay [1], the target named is T1, GABA-A receptor; alpha-3/beta-3/gamma-2 (Homo sapiens, UniProt P18507+P28472+P34903).
T1 sequence (P18507 whole entry): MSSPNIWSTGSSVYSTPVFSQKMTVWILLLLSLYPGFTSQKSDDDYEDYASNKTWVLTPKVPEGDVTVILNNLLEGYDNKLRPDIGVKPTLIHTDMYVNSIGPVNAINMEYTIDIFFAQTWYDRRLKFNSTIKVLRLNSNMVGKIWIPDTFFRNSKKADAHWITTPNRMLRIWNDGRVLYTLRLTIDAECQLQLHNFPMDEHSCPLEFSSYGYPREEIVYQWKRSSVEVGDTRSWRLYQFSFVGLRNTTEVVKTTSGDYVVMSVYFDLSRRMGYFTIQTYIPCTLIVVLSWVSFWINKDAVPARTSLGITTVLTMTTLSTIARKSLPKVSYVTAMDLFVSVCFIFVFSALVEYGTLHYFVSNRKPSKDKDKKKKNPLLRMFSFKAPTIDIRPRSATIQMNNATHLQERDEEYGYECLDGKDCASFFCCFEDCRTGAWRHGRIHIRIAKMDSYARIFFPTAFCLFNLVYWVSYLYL
T1 sequence (P28472 whole entry): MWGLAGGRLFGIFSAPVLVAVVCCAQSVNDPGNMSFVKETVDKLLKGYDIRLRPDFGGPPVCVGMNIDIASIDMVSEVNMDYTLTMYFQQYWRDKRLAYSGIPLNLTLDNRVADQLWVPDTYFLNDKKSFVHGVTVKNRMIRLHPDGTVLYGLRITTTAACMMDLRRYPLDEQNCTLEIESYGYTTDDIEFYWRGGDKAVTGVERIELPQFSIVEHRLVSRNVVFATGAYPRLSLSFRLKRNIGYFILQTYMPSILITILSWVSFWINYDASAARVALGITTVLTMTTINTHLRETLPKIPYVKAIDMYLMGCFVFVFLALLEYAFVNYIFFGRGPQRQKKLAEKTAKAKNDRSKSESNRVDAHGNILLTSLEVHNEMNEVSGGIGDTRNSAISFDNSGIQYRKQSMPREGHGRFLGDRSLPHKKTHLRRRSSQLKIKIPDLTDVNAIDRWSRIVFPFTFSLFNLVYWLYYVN
T1 sequence (P34903 whole entry): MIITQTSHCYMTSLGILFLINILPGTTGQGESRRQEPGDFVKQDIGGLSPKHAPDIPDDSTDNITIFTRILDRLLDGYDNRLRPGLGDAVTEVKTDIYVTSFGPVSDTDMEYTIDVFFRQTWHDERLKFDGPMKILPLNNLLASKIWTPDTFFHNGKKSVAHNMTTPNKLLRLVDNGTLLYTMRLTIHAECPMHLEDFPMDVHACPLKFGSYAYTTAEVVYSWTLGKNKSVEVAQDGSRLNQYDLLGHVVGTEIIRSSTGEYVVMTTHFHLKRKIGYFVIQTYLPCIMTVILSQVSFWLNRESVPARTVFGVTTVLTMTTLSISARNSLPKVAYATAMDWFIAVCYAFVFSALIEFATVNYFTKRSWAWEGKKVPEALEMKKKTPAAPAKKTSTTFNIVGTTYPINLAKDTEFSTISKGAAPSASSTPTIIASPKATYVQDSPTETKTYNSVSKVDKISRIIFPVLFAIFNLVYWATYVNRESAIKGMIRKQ
Kind of assay: Binding affinity for human GABA-A receptor alpha-3-beta-3-gamma-2 subunits in L(tk-) cells. The assay is classed as cell-based.

Assay [2] addresses T2, GABA-A receptor; alpha-5/beta-3/gamma-2 (Homo sapiens, UniProt P18507+P28472+P31644).
T2 sequence (P18507 whole entry): T1 sequence (P18507 whole entry)
T2 sequence (P28472 whole entry): T1 sequence (P28472 whole entry)
T2 sequence (P31644 whole entry): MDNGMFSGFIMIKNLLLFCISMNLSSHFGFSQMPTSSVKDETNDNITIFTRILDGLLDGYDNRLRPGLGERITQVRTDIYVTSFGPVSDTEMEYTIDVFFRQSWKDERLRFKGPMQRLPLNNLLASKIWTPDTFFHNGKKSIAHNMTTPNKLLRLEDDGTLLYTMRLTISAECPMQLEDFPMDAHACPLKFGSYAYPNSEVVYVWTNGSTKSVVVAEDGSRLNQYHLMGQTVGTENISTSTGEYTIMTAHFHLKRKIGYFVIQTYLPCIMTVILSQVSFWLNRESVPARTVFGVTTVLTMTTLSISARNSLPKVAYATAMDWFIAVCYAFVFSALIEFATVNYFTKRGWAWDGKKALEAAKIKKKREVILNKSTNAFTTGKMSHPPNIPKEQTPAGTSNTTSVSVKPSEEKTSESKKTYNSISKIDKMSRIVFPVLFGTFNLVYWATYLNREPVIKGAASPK
Kind of assay: Binding affinity for human GABA-A receptor alpha-5-beta-3-gamma-2 subunits in L(tk-) cells. The assay is classed as cell-based.

Assay [3] concerns the target GABA-A receptor; alpha-1/beta-3/gamma-2 (Homo sapiens) (UniProt P14867+P18507+P28472). The experiment in a line: Maximum percent change compared to GABA EC20 against GABA-A alpha-1-beta-3-gamma-2 receptor. The assay is classed as functional.
Assay [4] deals with T3, GABA-A receptor; alpha-2/beta-3/gamma-2 (Homo sapiens, UniProt P18507+P28472+P47869).
T3 sequence (P18507 whole entry): T1 sequence (P18507 whole entry)
T3 sequence (P28472 whole entry): T1 sequence (P28472 whole entry)
T3 sequence (P47869 whole entry): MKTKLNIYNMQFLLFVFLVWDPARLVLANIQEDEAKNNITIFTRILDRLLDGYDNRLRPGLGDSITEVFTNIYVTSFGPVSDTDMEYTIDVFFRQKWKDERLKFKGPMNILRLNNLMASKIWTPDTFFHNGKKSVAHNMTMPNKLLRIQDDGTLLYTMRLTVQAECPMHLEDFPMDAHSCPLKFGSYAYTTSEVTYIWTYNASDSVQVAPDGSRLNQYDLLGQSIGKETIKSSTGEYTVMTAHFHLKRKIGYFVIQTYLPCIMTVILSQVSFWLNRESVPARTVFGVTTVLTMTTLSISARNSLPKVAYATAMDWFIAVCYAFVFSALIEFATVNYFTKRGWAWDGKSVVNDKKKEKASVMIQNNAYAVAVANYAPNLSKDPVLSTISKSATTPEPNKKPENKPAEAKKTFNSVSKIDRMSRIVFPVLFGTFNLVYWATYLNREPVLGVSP
Kind of assay: Binding affinity for human GABA-A receptor alpha-2-beta-3-gamma-2 subunits in L(tk-) cells. The assay is classed as cell-based.

The target in assay [5] is GABA-A receptor; alpha-3/beta-3/gamma-2 (Homo sapiens) (UniProt P18507+P28472+P34903). Kind of assay: Maximum percent change compared to GABA EC20 against GABA-A alpha-3-beta-3-gamma-2 receptor. The assay is classed as functional.
Assay [6] deals with T4, GABA-A receptor; alpha-1/beta-3/gamma-2 (Homo sapiens, UniProt P14867+P18507+P28472).
T4 sequence (P14867 whole entry): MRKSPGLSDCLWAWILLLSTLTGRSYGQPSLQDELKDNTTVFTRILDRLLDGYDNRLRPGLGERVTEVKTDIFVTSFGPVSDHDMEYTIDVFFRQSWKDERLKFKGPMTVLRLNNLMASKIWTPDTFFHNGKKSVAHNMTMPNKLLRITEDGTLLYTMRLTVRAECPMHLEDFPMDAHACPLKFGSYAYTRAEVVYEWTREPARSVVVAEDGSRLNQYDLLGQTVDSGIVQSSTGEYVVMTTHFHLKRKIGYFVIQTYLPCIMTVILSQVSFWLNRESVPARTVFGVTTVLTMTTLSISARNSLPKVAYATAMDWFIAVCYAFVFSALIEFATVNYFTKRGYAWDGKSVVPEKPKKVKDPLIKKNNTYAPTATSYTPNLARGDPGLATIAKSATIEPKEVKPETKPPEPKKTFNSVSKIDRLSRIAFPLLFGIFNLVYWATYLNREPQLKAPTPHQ
T4 sequence (P18507 whole entry): T1 sequence (P18507 whole entry)
T4 sequence (P28472 whole entry): T1 sequence (P28472 whole entry)
The experiment in a line: Binding affinity for human GABA-A receptor alpha-1-beta-3-gamma-2 subunits in L(tk-) cells.

Regarding `Cc1ccc2c(c1)c(OCc1ccccn1)nn1c(-c3ccccc3)nnc21`, the Ki amounted to 1.2 nM in assay [1], 0.64 nM in assay [2], 2.2 nM in assay [4] and 2.2 nM in assay [6]. Moreover, the Efficacy in assay [3] turned out to be 65%; in assay [5] it was 27%.

In the case of `Cc1cccc2c1c(OCc1ccccn1)nn1c(-c3ccccc3)nnc21`, the Ki in assay [1] was 35 nM; in assay [2], 20 nM; in assay [4], 44 nM; in assay [6] it was 56 nM. Also, the Efficacy in assay [3] came out at 43%; in assay [5], 39%.

As to `Cc1cccc2c(OCc3ccccn3)nn3c(-c4ccccc4)nnc3c12`, the Ki stood at 0.37 nM in assay [1], 0.84 nM in assay [2], 1.8 nM in assay [4] and 1.2 nM in assay [6]. In addition, the Efficacy is 0% in assay [3] and 19% in assay [5].

As for `c1ccc(-c2nnc3c4ccccc4c(OCC4CCNCC4)nn23)cc1`, the Ki in assay [1] stood at 37 nM; in assay [2] it was 30 nM; in assay [4], 40 nM; in assay [6], 32 nM.

Take `c1ccc(-c2nnc3c4ccccc4c(OCc4ccncn4)nn23)cc1`: the Ki in assay [1] was determined as 1.3 nM; in assay [2], 0.5 nM; in assay [4], 2.9 nM; in assay [6], 2.3 nM.

Turning to `CCOC(=O)c1ncn2c1[C@@H]1CCCN1C(=O)c1cc(OC)ccc1-2`, the Ki in assay [1] turned out to be 11 nM; in assay [2], 0.4 nM; in assay [4], 22 nM; in assay [6], 44 nM.

In the case of `c1ccc(CSc2nn3c(-c4ccccc4)nnc3c3ccccc23)cc1`, the Ki in assay [1], in assay [2], in assay [4] and in assay [6] was over 1000 nM in each case.

On to `N#Cc1cccc(COc2nn3c(-c4ccccc4)nnc3c3ccccc23)c1`, for which the Ki was 170 nM in assay [1], 130 nM in assay [2], 400 nM in assay [4] and 730 nM in assay [6].

`c1ccc(Oc2nn3c(-c4ccccc4)nnc3c3ccccc23)cc1`: the inhibitory constant (Ki) in assay [1], in assay [2], in assay [4] and in assay [6] was over 1000 nM in each case.

With `Fc1ccc(-c2nnc3c4ccccc4c(OCc4ccccn4)nn23)cc1`, the Ki in assay [1] came out at 2.4 nM; in assay [2], 1.7 nM; in assay [4], 3.7 nM; in assay [6], 3.9 nM.

Turning to `Cc1ccc2c(OCc3ccccn3)nn3c(-c4ccccc4)nnc3c2c1`, the Ki in assay [1], in assay [2], in assay [4] and in assay [6] was over 1000 nM each time.

With `Clc1ccccc1COc1nn2c(-c3ccccc3)nnc2c2ccccc12`, the Ki is 260 nM in assay [1], 560 nM in assay [2], 580 nM in assay [4] and over 1000 nM in assay [6].

On to `Clc1cccc(COc2nn3c(-c4ccccc4)nnc3c3ccccc23)c1`, for which the Ki in assay [1], in assay [2], in assay [4] and in assay [6] was over 1000 nM throughout.

Turning to `c1ccc(-c2nnc3c4ccccc4c(OCc4cnccn4)nn23)cc1`, the inhibition constant Ki in assay [1] stood at 0.71 nM; in assay [2] it was 0.36 nM; in assay [4], 1.6 nM; in assay [6] it was 2 nM.

With `C=Cc1nnc2c3ccccc3c(OCc3ccccn3)nn12`, the Ki in assay [1] came out at 11 nM; in assay [2], 3.2 nM; in assay [4], 28 nM; in assay [6], 49 nM. Further, in assay [5], the Efficacy was -31%.

As to `Cn1ccnc1COc1nn2c(-c3ccccc3)nnc2c2ccccc12`, the Ki in assay [1] was found to be 0.22 nM; in assay [2], 0.17 nM; in assay [4] it was 0.7 nM; in assay [6], 0.51 nM.

On to `Cc1ccnc(COc2nn3c(-c4ccccc4)nnc3c3ccccc23)c1`, for which the Ki came to 10 nM in assay [1], 3.7 nM in assay [2], 11 nM in assay [4] and 18 nM in assay [6].

`Clc1ccc(COc2nn3c(-c4ccccc4)nnc3c3ccccc23)cc1`: the Ki in assay [1] was found to be 250 nM; in assay [2], 170 nM; in assay [4], 380 nM; in assay [6] it was 480 nM.

On to `COc1ccc(-c2nnc3c4ccccc4c(=O)n(Cc4ccccc4)n23)cc1`, for which the Ki in assay [1], in assay [2], in assay [4] and in assay [6] was over 1000 nM in each case.

On to `c1ccc(COc2nn3c(C4CCC4)nnc3c3ccccc23)nc1`, for which the Ki in assay [1] amounted to 23 nM; in assay [2], 5.1 nM; in assay [4] it was 24 nM; in assay [6], 56 nM.

Take `c1ccc(-c2nnc3c4ccccc4c(OCc4ccsc4)nn23)cc1`: the Ki in assay [1] worked out at 240 nM; in assay [2], 250 nM; in assay [4], 510 nM; in assay [6], 710 nM.

In the case of `Cc1cccnc1COc1nn2c(-c3ccccc3)nnc2c2ccccc12`, the Ki in assay [1] came out at 1 nM; in assay [2], 0.88 nM; in assay [4], 2.3 nM; in assay [6] it was 2.4 nM.

`c1ccc(-c2nnc3c4ccccc4c(OCc4ccncc4)nn23)cc1`: the inhibition constant (Ki) in assay [1] is 7.7 nM; in assay [2] it was 6.1 nM; in assay [4] it was 11 nM; in assay [6], 24 nM.

A word on the Ki: it is the equilibrium dissociation constant of an inhibitor or competing ligand from its target. Higher therefore signals a looser hold on the target.
